# Data published in the supplement of paper PMC10307832.
# Tests used:
# Assay in all cases: relative viability (nuclei count vs DMSO), 5 days (fraction); higher = more cells survive
# [1] = compound: C[As](C)SC[C@H](NC(=O)CC[C@H](N)C(=O)O)C(=O)NCC(=O)O [Darinaparsin] + Nc1ncn([C@H]2C[C@H](O)[C@@H](CO)O2)c(=O)n1 [Decitabine] (partner 2 µM)
# How it was run: (§1)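 For relative viability, nuclei counts in treated wells were divided by those in vehicle wells. Lung cancer cell lines had been pin-tool dosed in 1536-well plates the day after seeding and cultured for 5 days, then fixed and stained in one step (final 0.05% Triton X-100, 1% formaldehyde, 1 ug/ml Hoechst) and imaged at 4×. Doses were one drug alone or a fixed anchor-drug dose plus five library-drug doses (not always all listed) in √10 steps, and values are duplicate-plate medians.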
# AZ628 + Foretinib = compound: CC1=C(C=C(C=C1)NC(=O)C2=CC(=CC=C2)C(C)(C)C#N)NC3=CC4=C(C=C3)N=CN(C4=O)C [AZ628] + COc1cc2c(Oc3ccc(NC(=O)C4(C(=O)Nc5ccc(F)cc5)CC4)cc3F)ccnc2cc1OCCCN1CCOCC1 [Foretinib] (partner 0.25 µM)
# How it was run: as §1
# QS11 + Olaparib = compound: C1CC2=C(C1)C=C(C=C2)OC3=NC(=C4C(=N3)N(C=N4)CC5=CC=C(C=C5)C6=CC=CC=C6)N[C@@H](CC7=CC=CC=C7)CO [QS11] + O=C(c1cc(Cc2n[nH]c(=O)c3ccccc23)ccc1F)N1CCN(C(=O)C2CC2)CC1 [Olaparib] (partner 8 µM)
# How it was run: as §1
# AZ628 + Palbociclib = compound: CC1=C(C=C(C=C1)NC(=O)C2=CC(=CC=C2)C(C)(C)C#N)NC3=CC4=C(C=C3)N=CN(C4=O)C [AZ628] + CC(=O)c1c(C)c2cnc(Nc3ccc(N4CCNCC4)cn3)nc2n(C2CCCC2)c1=O [Palbociclib] (partner 0.5 µM)
# How it was run: as §1
Cell Line,relative viability ([1]; first compound 0.08 µM),relative viability ([1]; first compound 0.8 µM),relative viability ([1]; first compound 2.53 µM),relative viability ([1]; first compound 8 µM),relative viability (AZ628 + Foretinib; first compound 0.08 µM),relative viability (AZ628 + Foretinib; first compound 0.253 µM),relative viability (AZ628 + Foretinib; first compound 0.8 µM),relative viability (AZ628 + Foretinib; first compound 2.53 µM),relative viability (AZ628 + Foretinib; first compound 8 µM),relative viability (QS11 + Olaparib; first compound 0.08 µM),relative viability (QS11 + Olaparib; first compound 0.253 µM),relative viability (QS11 + Olaparib; first compound 0.8 µM),relative viability (QS11 + Olaparib; first compound 2.53 µM),relative viability (QS11 + Olaparib; first compound 8 µM),relative viability (AZ628 + Palbociclib; first compound 0.08 µM),relative viability (AZ628 + Palbociclib; first compound 0.253 µM),relative viability (AZ628 + Palbociclib; first compound 0.8 µM),relative viability (AZ628 + Palbociclib; first compound 2.53 µM),relative viability (AZ628 + Palbociclib; first compound 8 µM)
H3255,0.634,0.587,0.662,0.674,0.958,0.899,0.78,0.96,0.661,0.548,0.588,0.456,0.567,0.534,0.284,0.297,0.309,0.326,0.328
LOU-NH91,0.876,0.771,0.782,0.799,0.956,0.961,0.956,0.95,0.821,0.893,0.9,0.876,0.937,0.998,0.535,0.526,0.547,0.557,0.539
NCI-H2126,0.597,0.578,0.575,0.635,1.27,1.18,1.22,0.922,0.94,0.874,0.95,0.8,0.799,0.634,0.351,0.325,0.323,0.383,0.32
PC-14,0.253,0.197,0.201,0.202,0.95,0.916,0.949,0.945,0.765,0.253,0.339,0.249,0.272,0.38,0.521,0.517,0.343,0.455,0.219
EMC-BAC-2,0.916,0.907,1.18,0.969,0.91,0.87,0.871,0.901,0.877,0.461,0.492,0.464,0.492,0.44,0.521,0.55,0.535,0.519,0.554
HCC-78,0.729,0.668,0.65,0.853,0.732,0.748,0.715,0.621,0.67,0.665,1.02,0.83,0.859,0.806,0.478,0.454,0.516,0.53,0.449
SK-LU-1,0.637,0.587,0.495,0.759,–,0.75,0.685,0.628,0.589,0.354,0.442,0.466,0.356,0.452,0.284,0.286,0.349,0.314,0.288
ABC-1,1.16,1.09,1.1,0.953,0.96,1.17,1.19,0.944,0.943,0.655,0.833,0.85,0.563,1.04,0.795,0.586,0.5,0.884,0.712
LK-2,0.281,0.235,0.277,0.333,1.42,0.985,1.09,1.28,0.587,0.569,0.764,1.03,0.734,0.856,0.911,0.849,0.412,0.736,0.366
NCI-H23,0.341,0.292,0.35,0.311,0.989,0.967,0.768,0.773,0.588,0.297,0.226,0.245,0.269,0.264,0.476,0.551,0.347,0.23,0.265
NCI-H2228,–,–,–,–,0.72,0.806,0.811,0.722,0.532,0.586,0.663,0.727,0.648,0.993,0.763,0.605,0.843,0.737,0.619
NCI-H441,0.255,0.21,0.245,0.19,0.94,0.962,0.896,0.901,0.846,0.511,0.54,0.518,0.364,0.463,0.184,0.18,0.147,0.145,0.151
NCI-H460,0.749,0.496,0.461,0.59,0.978,0.996,0.974,1.02,0.54,0.422,0.435,0.36,0.416,0.277,0.148,0.168,0.147,0.17,0.123
LU99A,0.887,0.863,0.925,1.06,0.862,0.767,0.833,0.861,0.431,0.253,0.311,0.27,0.258,0.253,0.366,0.368,0.381,0.442,0.369
NCI-H358,0.189,0.21,0.231,0.193,0.538,0.472,0.373,0.466,0.323,0.635,0.62,0.566,0.633,0.618,0.126,0.131,0.136,0.142,0.123
IA-LM,–,–,–,–,1.28,1.04,0.821,0.861,0.2,1,0.924,0.706,0.741,0.78,–,–,–,–,–
UMC-11,0.563,0.574,0.636,0.677,1.13,0.916,0.951,1,1.19,0.324,0.41,0.268,0.329,0.395,0.405,0.299,0.347,0.324,0.292
LXF-289,0.41,0.424,0.347,0.4,1,0.942,0.879,0.961,0.641,1.03,1.1,0.823,0.95,0.963,0.617,0.658,0.592,0.621,0.44
NCI-H647,0.444,0.39,0.346,0.476,1.02,1.28,1.36,1.29,1.05,0.676,0.523,0.541,0.604,0.664,0.493,0.43,0.322,0.357,0.289
NCI-H1651,0.589,0.66,0.596,0.665,0.887,0.867,0.885,0.774,0.856,0.168,0.202,0.171,0.195,0.162,0.544,0.536,0.529,0.562,0.625

Cell Line,relative viability ([1]; first compound 0.08 µM),relative viability ([1]; first compound 0.8 µM),relative viability ([1]; first compound 2.53 µM),relative viability ([1]; first compound 8 µM),relative viability (AZ628 + Foretinib; first compound 0.08 µM),relative viability (AZ628 + Foretinib; first compound 0.253 µM),relative viability (AZ628 + Foretinib; first compound 0.8 µM),relative viability (AZ628 + Foretinib; first compound 2.53 µM),relative viability (AZ628 + Foretinib; first compound 8 µM),relative viability (QS11 + Olaparib; first compound 0.08 µM),relative viability (QS11 + Olaparib; first compound 0.253 µM),relative viability (QS11 + Olaparib; first compound 0.8 µM),relative viability (QS11 + Olaparib; first compound 2.53 µM),relative viability (QS11 + Olaparib; first compound 8 µM),relative viability (AZ628 + Palbociclib; first compound 0.08 µM),relative viability (AZ628 + Palbociclib; first compound 0.253 µM),relative viability (AZ628 + Palbociclib; first compound 0.8 µM),relative viability (AZ628 + Palbociclib; first compound 2.53 µM),relative viability (AZ628 + Palbociclib; first compound 8 µM)
NCI-H838,0.488,0.425,0.47,0.513,0.931,1,1.06,0.914,0.871,0.873,0.743,0.582,0.718,0.709,0.214,0.205,0.203,0.224,0.192
NCI-H661,0.581,0.528,0.523,0.652,1.12,0.974,0.846,0.866,0.832,0.708,0.791,0.637,0.745,0.71,0.418,0.378,0.368,0.366,0.386
NCI-H1734,0.558,0.483,0.504,0.529,0.667,0.759,0.686,0.753,0.416,0.625,0.649,0.608,0.587,0.507,0.367,0.301,0.299,0.319,0.225
HCC-827,0.284,0.316,0.32,0.363,0.982,0.933,0.967,1.02,0.715,0.587,0.712,0.656,0.775,0.606,0.474,0.456,0.357,0.487,0.311
201T,0.853,0.83,0.875,0.861,1.29,1.01,1.18,1.16,1.31,0.876,1.05,0.699,0.898,0.718,0.368,0.358,0.381,0.39,0.366
HCC-44,1.05,0.966,0.924,0.977,–,–,–,–,–,1.05,1.09,0.597,0.989,0.987,1.01,0.942,0.96,0.958,1.15
NCI-H650,0.296,0.35,0.333,0.338,1.02,1.21,1.19,1.14,1.13,0.316,0.364,0.375,0.316,0.418,0.366,0.425,0.475,0.545,0.374
CAL-12T,–,–,–,–,1.16,1.05,1.13,0.994,0.559,0.722,0.693,0.67,0.727,0.603,0.473,0.304,0.209,0.232,0.161
Calu-6,–,–,–,–,0.867,0.726,0.636,0.816,0.142,0.626,0.613,0.603,0.638,0.59,–,–,–,–,–
NCI-H1563,–,–,–,–,0.957,0.997,0.944,0.963,0.953,–,–,–,–,–,–,–,–,–,–
NCI-H1648,–,0.474,–,0.494,–,–,–,–,–,0.812,0.413,0.727,0.77,1.09,0.264,0.268,0.224,0.253,0.274
NCI-H596,1.02,1.11,1,1.15,0.867,1.05,0.913,0.905,0.991,0.724,0.563,0.634,0.606,0.61,–,–,–,–,–
NCI-H522,0.626,0.627,0.711,0.705,–,–,–,–,–,0.603,0.755,0.665,0.588,0.772,0.947,0.954,0.842,1.04,0.75
NCI-H1792,0.694,0.512,–,0.588,–,–,–,–,–,–,0.442,0.459,0.519,0.394,0.66,0.632,0.52,0.558,0.388
A549,–,0.209,0.229,0.291,0.931,0.824,0.816,0.956,0.34,0.197,0.339,0.37,0.284,0.574,–,–,–,–,–
NCI-H1703,–,–,–,–,0.327,0.41,0.415,0.302,0.413,0.411,0.363,0.597,0.501,0.551,–,–,–,–,–
NCI-H1299,–,–,–,–,1.12,1.3,1.3,1.24,0.58,0.955,1.03,0.848,0.928,0.793,–,–,–,–,–
NCI-H1623,–,–,–,–,0.848,0.829,0.62,0.764,0.498,–,–,–,–,–,–,–,–,–,–
EBC-1,–,–,–,–,0.117,0.11,0.111,0.0929,0.0846,0.758,0.813,0.675,0.644,0.68,–,–,–,–,–
